Literature values in patent publication EP1870093A1, “Pharmaceutical combination comprising adenosine A1 receptor antagonists and radiocontrast media” (Solvay Pharmaceuticals GmbH, priority 2006, dated 2007).

System: radiocontrast media induced nephropathy
Settings: Shammas 2001; Welch 2002; Huber 2002

Row | Compound | protection against radiocontrast media induced nephropathy
1 | Cn1c(=O)c2[nH]cnc2n(C)c1=O [Aminophylline, aminophylline] | does not appear to add a protective role
2 | Cn1c(=O)c2[nH]cnc2n(C)c1=O [theophylline] | effective in preventing radiocontrast media induced nephropathy
